Here are results for one compound from patent US20230149388A1, “OPIOID ANTAGONIST FORMULATIONS” (EMERGENT PRODUCT DEVELOPMENT GAITHERSBURG INC., priority 2020, published 2023).

The data set can be described thus: Pharmacokinetics of naloxone in Beagle dog, IM injection. The data set is classed as in vivo. The settings on record: both sexes, plasma, 0.3 mg/kg, Beagle dogs.

Experimental: Pharmacokinetic (“PK”) data was collected from male and female Beagle dogs. Two (2) animals of each sex were assigned to three cohorts. […] Each injection was administered at a dose of 0.3 mg/kg.
Blood samples were collected from each animal following IV injections at target time points of pre-dose, and at 0.033, 0.083, 0.167, 0.333, 0.5, 1, 2, 4, and 8 hr. Blood samples were also collected from each animal following IM injections at target time points of pre dose, and at 0.083, 0.167, 0.25, 0.333, 0.5, 1, 2, 4, and 8 hr. Blood samples were collected into tubes containing dipotassium ethylenediaminetetraacetic acid (K2EDTA), processed to plasma, and stored until analyzed for naloxone.
PK analysis was performed using the target dose (mg/kg), sample collection time points (hr), and the measured concentrations of naloxone (ng/mL) in serum. If the actual sample collection time points were within 5% of target from 0 to 4 hours or within 15 minutes after 4 hours, then the target time points were used. […] The lower limit of quantitation (LLOQ) in plasma for this method is 0.2 ng/mL.
The method utilized protein precipitation in a 96-well format and LC-MS/MS analysis. The literature method was modified to utilize a larger sample size (50 μL) analysis.
The concentration-time profiles were evaluated using the non-compartmental analysis (NCA) module in the WinNonlin® software program (Version 8.2). […]

What is called Tmax is the time at which the peak concentration occurs. A word on the half-life: it is how long it takes for the measured level to halve. As for `C=CCN1CC[C@]23c4c5ccc(O)c4O[C@H]2C(=O)CC[C@@]3(O)[C@H]1C5` [naloxone], the Tmax (following IM injection, typical value) is approximately 15 min. Further, the half-life (following both IM and IV injection, read-out: group mean elimination half-life) was 28 to 35 min.
